Like-named read-outs stand apart in the source and are kept apart here.
Key:
Assay type in all cases: in vivo
Veronica hederifolia = test: Herbicidal action (outdoor trials), post-emergence, Veronica hederifolia; conditions: visual score approx. 4-6 weeks after application, mean of 4 plots
Experimental: (§1) Herbicidal Action (Outdoor Trials)
(§2) The seeds or rhizome pieces of typical harmful plants were planted and grown under natural outdoor conditions. After the harmful plants had emerged, they were treated, as a rule at the 2- to 4-leaf stage, with various dosages of the compositions according to the invention at a water application rate of 100 to 400 I/ha (converted).
(§3) After the treatment (approx. 4-6 weeks after application), the herbidical activity of the active compounds or active compound mixtures was scored visually by comparing the treated plots with the untreated control plots. Damage and development of all above-ground parts of the plants was recorded. Scoring was done on a percentage scale (100% action=all plants dead; 50% action=50% of the plants and green plant parts dead; 0% action=no discernible action=like control plot). The score figures of in each case 4 plots were averaged.
(§4) The results are listed in the tables below, where the activity measured for the independent use of the active compounds (A) and (B) is stated in brackets and where g of AS/ha denotes grams of active substance per hectare.

Wheat = test system: Wheat
Experimental: as §1, §2, §3, §4

Setaria viridis = test: Herbicidal action (outdoor trials), post-emergence, Setaria viridis; conditions: read-out: Setaria viridis % activity
Experimental: as §1, §2, §3, §4

For `CCOC(=O)/C(Cl)=C/c1cc(N2C(=O)C3=C(CCCC3)C2=O)ccc1Cl` [cinidon-ethyl (B7), ethyl (Z)-2-chloro-3-[2-chloro-5-(1,2-cyclohex-1-enedicarboximido)phenyl]acrylate], the “Veronica hederifolia % damage” value (Veronica hederifolia; 25 g of AS/ha) was 35%, the “Veronica hederifolia % activity” value (Veronica hederifolia; 50 g of AS/ha) was 25% and the Wheat % activity (Wheat; 25 g of AS/ha, outdoor, visual score approx. 4-6 weeks after application, mean of 4 plots) was 0%. For the same compound, the Wheat % damage (Wheat; 50 g of AS/ha, outdoor, visual score approx. 4-6 weeks after application, mean of 4 plots) was 5%.
`COc1ncc(F)c2nc(S(=O)(=O)Nc3c(F)cccc3F)nn12` [florasulam (B3), 2′,6′,8′-trifluoro-5-methoxy[1,2,4]triazolo[1,5-c]pyrimidine-2-sulfanilide] was tested, and the “Veronica hederifolia % damage” value (Veronica hederifolia; 4 g of AS/ha) was 60% and the Wheat % activity (Wheat; 4 g of AS/ha, outdoor, visual score approx. 4-6 weeks after application, mean of 4 plots) was 0%.
Work on `COc1nn(C(=O)NS(=O)(=O)c2ccccc2OC(F)(F)F)c(=O)n1C.[Na]` [flucarbazone (B1), 4,5-dihydro-3-methoxy-4-methyl-5-oxo-N-(2-trifluoromethoxyphenylsulfonyl)-1H-1,2,4-triazole-1-carboxamide sodium salt] yielded an inhibition at 10 g/ha (Setaria viridis) of 40% and a Wheat % damage (Wheat; 10 g of AS/ha, outdoor, visual score approx. 4-6 weeks after application, mean of 4 plots) of 5%.
With `O=C(Nc1ccc(F)cc1)c1cccc(Oc2cccc(C(F)(F)F)c2)n1` [picolinafen (B6), 4′-fluoro-6-[(α,α,α-trifluoro-m-tolyl)oxy]picolinanilide] the “Veronica hederifolia % damage” value (Veronica hederifolia; 5 g of AS/ha) was 55%, the inhibition at 30 g/ha (Veronica hederifolia; Veronica hederifolia, 30 g of AS/ha) was 65% and the Wheat % activity (Wheat; in vivo) was 0%. The Wheat % damage (Wheat; in vivo) was 0%.

From patent publication US8158558B2, “Herbicide combinations comprising specific sulfonylureas” (Bayer CropScience GmbH, priority 2001, dated 2012)
